Data on 3 molecules can be found in patent publication US7438933B2, “Maternal multi-nutrient against diabetes-related birth defects” (The Board of Trustees of the University of Arkansas System, priority 2004, dated 2008).

For one assay, the system named is diabetic pregnancies. The note with it: experimental models; reduced from 25%; cited from earlier work.
The subject of another assay is yolk sacs. Description: DNA laddering assay of apoptosis in embryonic yolk sacs after maternal supplementation. The note with it: embryos of diabetic mothers with supplemented diet, FIG. 7. The format is in vivo, rat. How it is done: To determine whether hyperglycemia is associated with programmed cell death in embryos, DNA laddering was examined in yolk sacs of embryos with either diabetic or non-diabetic mothers. Yolk sac tissues were collected from embryos, and DNA was extracted using DNeasy Tissue Kit (Qiagen, Valencia, Calif.) and resolved on 0.5% agarose gel. […] To examine whether supplemented diets affected apoptosis in developing embryos of diabetic dams, DNA fragmentation (an indicator of apoptosis) was analyzed using DNA laddering assays.

A further assay deals with Bax. Description: Western blot of phosphorylated Bax in yolk sac cells. It counts as in vivo, rat. The note with it: embryos of diabetic dams with supplementation, FIG. 4A. The source says: (§1) Apoptosis is mediated by a program involving a number of factors, including caspase3 and Bax (a member of the Bcl-2 family). Hyperglycemia may stimulate JNK activity, which then activates caspases and leads to apoptosis. Activation of Bax is also a hallmark of ongoing apoptosis. To determine whether caspase and Bax activation are involved in maternal diabetic embryopathy, changes in the levels of phosphorylated caspase3 and Bax in yolk sac cells from embryos with either diabetic or non-diabetic mothers were assessed. Cell lysates were resolved on 12% polyacrylamide gel and blotted on nylon membrane. The blots were probed with antibodies raised against phosphorylated caspase3 or Bax (Santa Cruz Biotechnologies, Santa Cruz, Calif.). Signals were detected using a chemiluminescence detection method and exposed to X-ray film (FIG. 4A). The density of the bands on X-ray film was measured using densitometry (VersaDoc Imaging System, Bio-Rad, Hercules, Calif.) and analyzed with one-dimensional analysis software (Bio-Rad; FIGS. 4B and C). The value of each band was calculated as a percentage of the control, which was set at 100%.
In general terms: A western blot detects proteins with antibodies after separation by electrophoresis.

The next assay has as its system embryos of diabetic rats. Kind of assay: Dietary supplementation of pregnant STZ-diabetic and non-diabetic rats; neural tube defects in E12 embryos. It counts as in vivo, rat. The conditions noted are these: supplemented diet from day 1 of pregnancy, embryos at E12. How it is done:
To induce diabetes, 8-week-old Sprague-Dawley female rats are injected with 65 mg/kg of streptozotocin via the tail vein. Blood glucose levels are monitored daily (by tail vein puncture using a lancet) using a Prestige Smart blood glucose meter (Home Diagnostics, Fort Lauderdale, Fla.). Once a level of hyperglycemia indicative of diabetes (>250 mg/dl) is achieved, a sustained-release insulin pellet (Linplant, Linshin, Canada) will be inserted subcutaneously.
When glucose levels are restored to normal (80-150 mg/dl) and are stable for at least three continuous days, matings can be set up with male rats of the same strain. Day zero of pregnancy is established by identifying spermatozoa in vaginal smears. At designated developmental stages, insulin pellets are withdrawn to generate hyperglycemia in the pregnant rats. A group of control rats will continuously receive insulin during the course of the experiment. Glucose levels and maternal weight are continuously monitored during the pregnancy. Since it has already been shown that there is no difference in embryonic development between streptozotocin/insulin-treated and non-streptozotocin-treated animals, the streptozotocin/insulin-treated groups are used as an equivalent of non-diabetic control. At the end of the experiment, rats are euthanized and embryos dissected out of the uterus for examination and analysis. At least four pregnant rats are included in each group, from which 40-60 embryos can be obtained for examination. For each type of study, at least three replicate experiments will be carried out.
To investigate the effects of maternal hyperglycemia on embryonic malformations, the investigators employed a rat model that induces diabetes by streptozotocin (STZ). Subcutaneously implanted insulin pellets maintained euglycemia at the time of mating. On day 4 of pregnancy, the insulin pellets were removed, and the developing embryos were exposed to hyperglycemia during organogenesis (days 9-12). To maintain a euglycemic control, insulin pellets were retained in the body during the entire experimental course. On day 12, both sets of rats were euthanized, embryos were dissected out of the uteri for examination, and each embryo's yolk sac was collected for biochemical and molecular analyses.
After removal from the dams, embryos were examined under a dissecting microscope and assessed for morphological malformations in a number of categories to determine the effects of maternal hyperglycemia. […]
At E12, embryos were dissected out of uteri and evaluated for neural tube defects (NTDs), which were used as a measure of malformation rates.

A further assay has as its system JNK1/2. Kind of assay: Western blot of phosphorylated JNK1/2 in embryonic yolk sac cells. It counts as in vivo, rat. The note with it: diabetic dams with supplemented diet, changed to the levels of non-diabetic rats, FIG. 8. How it is done: (§2) The active forms of ERK and JNK are phosphorylated, so their activation in yolk sac tissues were assessed by Western blot detection of the corresponding phosphoproteins. The levels of phosphorylated Raf-1 which activates ERKs and Akt which is an antiapototic protein were also assessed by western blot. Yolk sac tissues were isolated, protein was extracted and analyzed using Western blotting with antibodies specific for phosphorylated ERK-1 and -2 (p-ERK1/2), JNK-1 and -2 (p-JNK1/2), RAF-1 and Akt (FIG. 6A). […] Levels of phosphorylated ERK1/2, JNK1/2, Raf-1 and Akt in embryonic yolk sac cells were evaluated using Western blot assays.

The next assay has as its system ERK1/2. Description: Western blot of phosphorylated ERK1/2 in embryonic yolk sac cells. The format is in vivo, rat. The conditions noted are these: diabetic dams with supplemented diet, changed to the levels of non-diabetic rats, FIG. 8. The procedure:
as §2

In a further assay the test system is caspase3. Kind of assay: Western blot of phosphorylated caspase3 in yolk sac cells. The conditions noted are these: embryos of diabetic dams with supplementation, FIG. 4A. The format is in vivo, rat.
Source text: as §1

As for `O=C(O)CCCC[C@@H]1CCSS1` (racemic) [lipoic acid], in the assay on diabetic pregnancies, the “malformation rate in diabetic pregnancies” value was 10%.
On to `CCCCC/C=C\C/C=C\C/C=C\C/C=C\CCCC(=O)O` [arachidonic acid], for which the “DNA fragmentation (DNA laddering) in yolk sacs” value in the assay on yolk sacs was “DNA fragmentation was eliminated”. Moreover, the “phosphorylated Bax level in yolk sacs” value in the assay on Bax was “reversal of increased caspase3 and Bax levels”. The “NTDs (%)” value in the assay on embryos of diabetic rats (diabetic rats) was 7.6%; with embryos of diabetic rats (non-diabetic rats), 4.1%. Moreover, the “level of activated JNKs (p-JNK1/2) in embryonic yolk sacs” value in the assay on JNK1/2 was “altered embryo levels of activated ERKs and JNKs”. Besides, the “level of activated ERKs (p-ERK1/2) in embryonic yolk sacs” value with ERK1/2 is “altered embryo levels of activated ERKs and JNKs”. Moreover, the “phosphorylated caspase3 level in yolk sacs” value in the assay with caspase3 is “reversal of increased caspase3 and Bax levels”.
With `Cc1c(C)c2c(c(C)c1O)CC[C@@](C)(CCC[C@H](C)CCC[C@H](C)CCCC(C)C)O2` [vitamin E, α-tocopherol], in the assay with yolk sacs, the “DNA fragmentation (DNA laddering) in yolk sacs” value is “DNA fragmentation was eliminated”. Also, the “phosphorylated Bax level in yolk sacs” value in the assay on Bax was “reversal of increased caspase3 and Bax levels”. The “NTDs (%)” value in the assay with embryos of diabetic rats (diabetic rats) is 6.9%; with embryos of diabetic rats (non-diabetic rats), 5.0%. Besides, the “level of activated JNKs (p-JNK1/2) in embryonic yolk sacs” value with JNK1/2 is “altered embryo levels of activated ERKs and JNKs”. Moreover, the “level of activated ERKs (p-ERK1/2) in embryonic yolk sacs” value in the assay with ERK1/2 was “altered embryo levels of activated ERKs and JNKs”. Besides, the “phosphorylated caspase3 level in yolk sacs” value in the assay on caspase3 was “reversal of increased caspase3 and Bax levels”.
